Laboratory results as given in ChEMBL document CHEMBL5291721, “A preclinical secondary pharmacology resource illuminates target-adverse drug reaction associations of marketed drugs” (Nat Commun, 2023).

What was measured:
Adenosine receptor A3 = target: T1, Adenosine receptor A3 (Homo sapiens, UniProt P0DMS8)
T1 sequence (P0DMS8 whole entry): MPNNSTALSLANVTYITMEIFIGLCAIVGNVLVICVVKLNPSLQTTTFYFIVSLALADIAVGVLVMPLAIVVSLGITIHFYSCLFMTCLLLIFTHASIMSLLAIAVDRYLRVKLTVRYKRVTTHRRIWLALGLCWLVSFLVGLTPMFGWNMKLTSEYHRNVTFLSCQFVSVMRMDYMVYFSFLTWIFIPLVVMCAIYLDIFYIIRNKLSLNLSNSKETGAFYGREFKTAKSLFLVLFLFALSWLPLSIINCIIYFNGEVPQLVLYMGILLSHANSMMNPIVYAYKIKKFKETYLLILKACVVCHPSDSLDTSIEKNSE

[1] = target: Gamma-aminobutyric acid receptor subunit alpha-1 (Rattus norvegicus, UniProt P62813)
Sequence of Gamma-aminobutyric acid receptor subunit alpha-1 (P62813 whole entry): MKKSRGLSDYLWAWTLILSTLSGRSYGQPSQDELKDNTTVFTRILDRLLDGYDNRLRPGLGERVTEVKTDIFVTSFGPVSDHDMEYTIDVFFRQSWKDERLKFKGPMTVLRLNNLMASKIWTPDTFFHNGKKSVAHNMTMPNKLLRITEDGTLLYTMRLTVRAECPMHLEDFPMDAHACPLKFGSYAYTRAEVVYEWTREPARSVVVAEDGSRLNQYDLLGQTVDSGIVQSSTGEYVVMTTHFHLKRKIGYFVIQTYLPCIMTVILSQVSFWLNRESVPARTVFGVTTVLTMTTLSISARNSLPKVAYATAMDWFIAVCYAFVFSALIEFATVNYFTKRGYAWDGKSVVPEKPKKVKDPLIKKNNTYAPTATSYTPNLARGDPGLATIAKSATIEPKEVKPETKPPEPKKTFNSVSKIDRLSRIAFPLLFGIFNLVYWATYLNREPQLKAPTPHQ

[2] = target: Voltage-dependent L-type calcium channel subunit alpha-1C (Rattus norvegicus, UniProt P22002); format: functional
Sequence of Voltage-dependent L-type calcium channel subunit alpha-1C (P22002 whole entry): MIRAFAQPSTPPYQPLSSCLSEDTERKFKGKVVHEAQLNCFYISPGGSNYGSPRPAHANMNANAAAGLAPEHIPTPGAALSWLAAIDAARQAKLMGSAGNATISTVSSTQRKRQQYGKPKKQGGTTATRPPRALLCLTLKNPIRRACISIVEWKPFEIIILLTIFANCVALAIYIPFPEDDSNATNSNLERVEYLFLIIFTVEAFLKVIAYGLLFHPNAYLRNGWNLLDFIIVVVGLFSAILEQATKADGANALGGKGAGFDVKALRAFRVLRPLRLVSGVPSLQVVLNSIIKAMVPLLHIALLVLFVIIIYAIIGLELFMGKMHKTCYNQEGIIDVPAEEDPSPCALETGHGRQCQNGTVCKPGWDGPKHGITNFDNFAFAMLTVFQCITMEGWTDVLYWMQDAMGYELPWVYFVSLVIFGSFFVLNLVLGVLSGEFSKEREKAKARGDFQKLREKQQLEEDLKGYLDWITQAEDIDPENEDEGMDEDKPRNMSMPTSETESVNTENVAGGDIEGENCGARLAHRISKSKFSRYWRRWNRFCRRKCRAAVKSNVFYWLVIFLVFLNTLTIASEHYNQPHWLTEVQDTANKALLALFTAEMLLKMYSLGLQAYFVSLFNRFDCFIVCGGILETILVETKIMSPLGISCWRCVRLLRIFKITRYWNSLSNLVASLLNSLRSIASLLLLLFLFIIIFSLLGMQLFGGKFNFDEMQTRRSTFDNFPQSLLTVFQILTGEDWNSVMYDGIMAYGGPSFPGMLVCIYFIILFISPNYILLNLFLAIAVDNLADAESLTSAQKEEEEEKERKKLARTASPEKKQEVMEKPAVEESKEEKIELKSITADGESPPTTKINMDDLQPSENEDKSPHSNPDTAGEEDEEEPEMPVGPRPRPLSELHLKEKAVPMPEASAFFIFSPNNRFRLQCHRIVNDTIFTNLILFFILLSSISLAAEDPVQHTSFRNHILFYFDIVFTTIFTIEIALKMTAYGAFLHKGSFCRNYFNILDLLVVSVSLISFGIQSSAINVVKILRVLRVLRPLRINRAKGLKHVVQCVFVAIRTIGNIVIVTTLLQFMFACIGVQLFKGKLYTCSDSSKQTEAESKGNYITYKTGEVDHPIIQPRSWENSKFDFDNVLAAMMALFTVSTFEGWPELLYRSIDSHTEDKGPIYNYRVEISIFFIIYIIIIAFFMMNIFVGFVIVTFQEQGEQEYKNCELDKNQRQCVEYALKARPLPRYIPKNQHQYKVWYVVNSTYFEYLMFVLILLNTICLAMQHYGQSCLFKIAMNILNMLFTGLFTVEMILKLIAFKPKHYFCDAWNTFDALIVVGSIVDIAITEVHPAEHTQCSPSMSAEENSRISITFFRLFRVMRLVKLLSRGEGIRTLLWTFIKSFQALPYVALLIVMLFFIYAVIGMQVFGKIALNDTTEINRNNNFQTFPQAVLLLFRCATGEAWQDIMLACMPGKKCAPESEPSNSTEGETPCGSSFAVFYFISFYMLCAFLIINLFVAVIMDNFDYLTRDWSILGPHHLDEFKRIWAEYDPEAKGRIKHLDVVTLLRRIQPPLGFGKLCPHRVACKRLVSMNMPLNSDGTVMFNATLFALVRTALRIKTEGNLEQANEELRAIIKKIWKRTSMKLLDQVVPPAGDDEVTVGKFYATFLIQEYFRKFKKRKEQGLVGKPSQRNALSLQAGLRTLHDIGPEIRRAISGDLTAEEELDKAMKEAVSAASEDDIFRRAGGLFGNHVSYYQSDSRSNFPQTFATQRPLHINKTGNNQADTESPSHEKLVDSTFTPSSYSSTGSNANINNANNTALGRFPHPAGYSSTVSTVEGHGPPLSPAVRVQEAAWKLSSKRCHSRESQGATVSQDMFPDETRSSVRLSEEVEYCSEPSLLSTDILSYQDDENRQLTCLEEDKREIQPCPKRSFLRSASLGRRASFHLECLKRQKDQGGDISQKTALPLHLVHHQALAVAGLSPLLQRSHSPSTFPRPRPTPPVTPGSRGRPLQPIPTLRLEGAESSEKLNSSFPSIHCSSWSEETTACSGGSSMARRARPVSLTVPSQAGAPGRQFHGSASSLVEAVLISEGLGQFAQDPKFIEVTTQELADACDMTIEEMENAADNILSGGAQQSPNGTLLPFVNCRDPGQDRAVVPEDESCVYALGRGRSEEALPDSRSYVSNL

[3] = target: T2, Cholecystokinin receptor type A (Homo sapiens, UniProt P32238)
T2 sequence (P32238 whole entry): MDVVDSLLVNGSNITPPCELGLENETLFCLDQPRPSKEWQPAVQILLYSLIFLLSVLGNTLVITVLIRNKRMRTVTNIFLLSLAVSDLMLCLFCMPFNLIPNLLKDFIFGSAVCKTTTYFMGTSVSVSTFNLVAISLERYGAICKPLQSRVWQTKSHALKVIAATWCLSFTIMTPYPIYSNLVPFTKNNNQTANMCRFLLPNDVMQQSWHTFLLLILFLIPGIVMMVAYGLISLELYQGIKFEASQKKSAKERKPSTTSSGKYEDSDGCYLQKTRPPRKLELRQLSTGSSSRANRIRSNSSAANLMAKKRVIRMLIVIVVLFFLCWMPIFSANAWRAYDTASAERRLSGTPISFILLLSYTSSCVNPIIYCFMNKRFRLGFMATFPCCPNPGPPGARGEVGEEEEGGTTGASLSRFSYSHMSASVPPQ

[4] = target: T3, Amine oxidase [flavin-containing] A (Homo sapiens, UniProt P21397); format: functional
T3 sequence (P21397 whole entry): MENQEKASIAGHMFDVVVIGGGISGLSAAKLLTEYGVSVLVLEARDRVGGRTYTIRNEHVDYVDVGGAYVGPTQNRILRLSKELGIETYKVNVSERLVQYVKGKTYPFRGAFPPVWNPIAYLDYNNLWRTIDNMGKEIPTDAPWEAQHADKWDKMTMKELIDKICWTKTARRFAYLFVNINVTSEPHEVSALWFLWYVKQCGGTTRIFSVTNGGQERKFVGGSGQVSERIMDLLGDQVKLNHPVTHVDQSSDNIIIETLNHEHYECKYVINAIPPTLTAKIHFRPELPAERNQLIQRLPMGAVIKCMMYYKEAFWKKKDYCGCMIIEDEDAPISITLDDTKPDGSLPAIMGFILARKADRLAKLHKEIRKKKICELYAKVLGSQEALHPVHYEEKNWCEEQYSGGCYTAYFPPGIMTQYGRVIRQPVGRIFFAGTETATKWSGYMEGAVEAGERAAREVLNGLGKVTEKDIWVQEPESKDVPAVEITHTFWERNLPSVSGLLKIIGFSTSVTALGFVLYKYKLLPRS

[5] = target: Sodium-dependent dopamine transporter (Homo sapiens, UniProt Q01959)
Sequence of Sodium-dependent dopamine transporter (Q01959 whole entry): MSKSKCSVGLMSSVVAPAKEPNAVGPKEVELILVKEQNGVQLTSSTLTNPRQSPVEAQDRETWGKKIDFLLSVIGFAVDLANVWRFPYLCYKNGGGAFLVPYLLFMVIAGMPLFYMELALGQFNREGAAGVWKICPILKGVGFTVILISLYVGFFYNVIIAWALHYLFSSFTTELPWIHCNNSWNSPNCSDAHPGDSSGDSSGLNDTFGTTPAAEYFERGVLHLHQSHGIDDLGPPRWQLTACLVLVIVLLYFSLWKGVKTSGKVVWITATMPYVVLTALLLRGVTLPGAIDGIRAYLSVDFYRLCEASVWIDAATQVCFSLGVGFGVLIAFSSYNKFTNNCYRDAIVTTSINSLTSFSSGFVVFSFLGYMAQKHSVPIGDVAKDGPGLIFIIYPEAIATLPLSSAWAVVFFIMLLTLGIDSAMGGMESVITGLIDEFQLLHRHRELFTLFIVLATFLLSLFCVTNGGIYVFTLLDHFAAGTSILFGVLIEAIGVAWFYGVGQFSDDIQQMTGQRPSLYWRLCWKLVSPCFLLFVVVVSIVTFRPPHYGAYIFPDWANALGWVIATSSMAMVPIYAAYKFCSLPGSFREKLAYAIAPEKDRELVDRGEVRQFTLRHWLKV

D(3) dopamine receptor = D(3) dopamine receptor (Homo sapiens, UniProt P35462)
Sequence of D(3) dopamine receptor (P35462 whole entry): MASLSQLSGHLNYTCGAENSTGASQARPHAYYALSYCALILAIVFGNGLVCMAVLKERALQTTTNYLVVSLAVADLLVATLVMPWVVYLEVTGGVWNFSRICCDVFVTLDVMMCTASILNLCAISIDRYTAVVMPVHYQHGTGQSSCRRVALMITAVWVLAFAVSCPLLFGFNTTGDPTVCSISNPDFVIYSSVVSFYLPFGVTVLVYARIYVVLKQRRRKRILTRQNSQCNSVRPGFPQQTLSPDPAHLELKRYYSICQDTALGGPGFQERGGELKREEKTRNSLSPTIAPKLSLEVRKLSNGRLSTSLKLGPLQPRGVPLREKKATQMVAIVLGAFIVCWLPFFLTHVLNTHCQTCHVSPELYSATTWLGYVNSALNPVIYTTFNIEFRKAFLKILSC

Glucocorticoid receptor = target: T4, Glucocorticoid receptor (Homo sapiens, UniProt P04150)
T4 sequence (P04150 whole entry): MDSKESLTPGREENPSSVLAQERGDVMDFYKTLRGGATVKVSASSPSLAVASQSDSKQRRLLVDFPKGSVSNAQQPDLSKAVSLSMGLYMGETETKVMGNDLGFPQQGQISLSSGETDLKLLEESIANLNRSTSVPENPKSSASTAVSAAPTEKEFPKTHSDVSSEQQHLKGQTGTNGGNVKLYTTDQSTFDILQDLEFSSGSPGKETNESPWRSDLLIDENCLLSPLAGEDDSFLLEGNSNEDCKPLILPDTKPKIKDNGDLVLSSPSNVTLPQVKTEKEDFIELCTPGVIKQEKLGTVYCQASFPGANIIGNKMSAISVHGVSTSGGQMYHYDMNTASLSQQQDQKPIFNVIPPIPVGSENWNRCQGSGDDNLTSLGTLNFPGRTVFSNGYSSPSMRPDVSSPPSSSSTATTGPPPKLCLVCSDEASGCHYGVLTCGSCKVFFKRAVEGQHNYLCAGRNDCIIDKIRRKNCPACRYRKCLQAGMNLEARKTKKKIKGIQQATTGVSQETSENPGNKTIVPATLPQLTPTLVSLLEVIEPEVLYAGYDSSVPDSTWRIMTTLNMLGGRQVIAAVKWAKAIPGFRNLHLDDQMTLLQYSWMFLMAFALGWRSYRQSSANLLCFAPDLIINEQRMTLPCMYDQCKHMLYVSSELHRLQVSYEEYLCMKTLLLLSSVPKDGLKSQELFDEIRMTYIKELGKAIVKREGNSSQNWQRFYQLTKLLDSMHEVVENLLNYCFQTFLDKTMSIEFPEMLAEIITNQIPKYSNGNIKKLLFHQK

[6] = target: T5, Alpha-1A adrenergic receptor (Homo sapiens, UniProt P35348); format: functional, cell-based
T5 sequence (P35348 whole entry): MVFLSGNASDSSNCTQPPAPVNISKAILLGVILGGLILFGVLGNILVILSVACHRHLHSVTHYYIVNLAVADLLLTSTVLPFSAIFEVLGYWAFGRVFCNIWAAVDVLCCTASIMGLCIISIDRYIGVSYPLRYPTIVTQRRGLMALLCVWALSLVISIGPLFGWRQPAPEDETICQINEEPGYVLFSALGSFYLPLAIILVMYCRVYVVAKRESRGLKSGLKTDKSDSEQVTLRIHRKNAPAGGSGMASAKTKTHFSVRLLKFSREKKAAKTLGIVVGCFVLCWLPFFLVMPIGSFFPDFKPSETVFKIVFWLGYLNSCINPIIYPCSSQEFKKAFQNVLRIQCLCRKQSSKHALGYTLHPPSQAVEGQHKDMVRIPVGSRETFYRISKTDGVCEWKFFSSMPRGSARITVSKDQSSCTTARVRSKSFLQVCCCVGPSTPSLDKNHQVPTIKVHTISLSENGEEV
Further: assay procedure not described here.

| SMILES | AC50 (Adenosine receptor A3) [µM] | AC50 [1] [µM] | AC50 [2] [µM] | AC50 [3] [µM] | AC50 [4] [µM] | AC50 [5] [µM] | AC50 (D(3) dopamine receptor) [µM] | AC50 (Glucocorticoid receptor) [µM] | AC50 [6] [µM] |
| --- | --- | --- | --- | --- | --- | --- | --- | --- | --- |
| C=C1c2c(Cl)ccc(O)c2C(=O)C2=C(O)[C@]3(O)C(=O)C(C(N)=O)=C(O)[C@@H](N(C)C)[C@@H]3[C@@H](O)[C@H]12 [MECLOCYCLINE] | > 30 | > 30 | – | – | – | – | – | – | – |
| NC(=O)c1nc(F)c[nH]c1=O | > 30 | > 30 | – | – | – | – | – | – | – |
| O=C(Nc1cccc2c(=O)cc(-c3nnn[nH]3)oc12)c1ccc(OCCCCc2ccccc2)cc1 | – | > 30 | – | – | – | – | – | – | – |
| CC1(C)O[C@@H]2[C@@H](CO[C@@]3(COS(N)(=O)=O)OC(C)(C)O[C@@H]23)O1 [TOPIRAMATE] | – | > 30 | > 10 | > 30 | > 10 | > 10 | > 10 | – | – |
| N=C(N)NCc1cccc([123I])c1 [IOBENGUANE I 123] | > 30 | > 30 | – | – | – | – | – | – | – |
| COc1nccnc1NS(=O)(=O)c1ccc(N)cc1 | > 30 | > 30 | – | – | – | – | – | – | – |
| CN(C)c1cc(CNCC(C)(C)C)c(O)c2c1C[C@H]1C[C@H]3[C@H](N(C)C)C(O)=C(C(N)=O)C(=O)[C@@]3(O)C(O)=C1C2=O [OMADACYCLINE] | – | > 30 | – | > 30 | > 30 | > 30 | 27 | > 30 | > 30 |
| Cc1ccc([C@@H]2O[C@H](CO)[C@@H](O)[C@H](O)[C@H]2O)cc1Cc1ccc(-c2ccc(F)cc2)s1 [CANAGLIFLOZIN ANHYDROUS] | 18.4 | > 30 | – | – | – | – | – | – | – |
| CN(C)CCN(Cc1ccc(Cl)cc1)c1ccccn1 [CHLOROPYRAMINE] | > 30 | > 30 | – | – | – | – | – | – | – |
| CNC(=O)c1cc(Oc2ccc(NC(=O)Nc3ccc(Cl)c(C(F)(F)F)c3)c(F)c2)ccn1 [REGORAFENIB] | – | > 30 | – | – | 9.05 | 6.33 | > 30 | – | > 30 |
| CC(C)(N)C(=O)N[C@H](Cc1c[nH]c2ccccc12)C(=O)N[C@H](Cc1c[nH]c2ccccc12)NC=O [MACIMORELIN] | – | > 30 | – | – | – | – | – | – | – |
| O=C(O)c1cc(=O)c2ccccc2o1 [CHROMOCARB] | > 30 | > 30 | – | – | – | – | – | – | – |
| CC1(C)O[C@@H]2C[C@H]3[C@@H]4CCC5=CC(=O)CC[C@]5(C)[C@@]4(F)[C@@H](O)C[C@]3(C)[C@]2(C(=O)CCl)O1 [HALCINONIDE] | > 30 | > 30 | – | – | – | – | – | – | – |
| CN1CCN(CCCN2c3ccccc3Sc3ccc(S(=O)(=O)N(C)C)cc32)CC1 [THIOPROPERAZINE] | – | > 30 | – | – | > 30 | – | 0.031 | – | > 30 |
| CCC(=O)O[C@@H](O[P@](=O)(CCCCc1ccccc1)CC(=O)N1C[C@H](C2CCCCC2)C[C@H]1C(=O)O)C(C)C [FOSINOPRIL] | – | > 30 | – | – | > 30 | – | > 30 | – | > 30 |
| C[C@]12CCC(=O)C=C1CC[C@@H]1[C@@H]2[C@@H](O)C[C@@]2(C)[C@H]1CC[C@]2(O)C(=O)COC(=O)CCC(=O)O [HYDROCORTISONE HEMISUCCINATE ANHYDROUS] | > 30 | > 30 | – | – | – | – | – | – | – |
| CC(=O)Oc1ccccc1C(=O)Nc1ncc([N+](=O)[O-])s1 [NITAZOXANIDE] | 9.88 | – | > 30 | 6.6 | 7.5 | 7.3 | 25 | > 30 | > 30 |
| Cn1c(=O)c2[nH]cnc2n(C)c1=O [THEOPHYLLINE] | – | > 30 | > 10 | > 30 | > 10 | > 30 | > 30 | – | > 30 |
| N[C@@H](CSSC[C@H](N)C(=O)O)C(=O)O [CYSTINE] | > 30 | > 30 | – | – | – | – | – | – | – |
| C#C[C@]1(O)CC[C@H]2[C@@H]3CCC4=C(CCC(=O)C4)[C@H]3CC[C@@]21C [NORETHYNODREL] | 10.1 | > 30 | – | – | – | – | – | – | – |
| CCCCNc1ccc(C(=O)OCCN(C)C)cc1 [TETRACAINE] | – | > 30 | > 10 | > 30 | 0.97 | > 10 | 22 | > 30 | > 30 |
